What was measured:
[1] = biological target: MNK1 (Homo sapiens, UniProt Q9BUB5); assay: MNK1 kinase inhibition assay (LANCE Ultra kinase activity assay, PerkinElmer); format: biochemical; conditions: 450 μM ATP; for IC50: five concentrations 10000-1 nM; for inhibition at 1 µM: inhibition rate at 1000 nM compound, 60 min, 25° C., read-out: Inhibitory activity(1 μM) MNK1
Protocol: (§1) MNK1 and MNK2 kinase inhibition assays were performed using LANCE Ultra kinase activity assay developed by PerkinElmer. […] The test steps are as follows: At 25° C., 1.00 ng MNK1 or 0.05 ng MNK2 was prepared with different concentrations (10000, 1000, 100, 10, 1 nM) of the tested compound to form a total volume of 10 μL reaction mixture (MNK1: 12.5 nM CREB, 450 μM ATP, 2 mM DTT, 1× buffer; MNK2: 12.5 nM CREB, 100 μM ATP, 2 mM DTT, 1×buffer), and incubation for 60 min. The reaction was terminated by adding 5 μL EDTA/Detection buffer and 5 μL Eu-CREB/Detection buffer. The ratio of HTRF signals at 615 nm and 665 nm was detected after 60 min of incubation. The inhibition rate was calculated by measuring the compounds at 1000 nM.
(§2) Then five different concentrations (10000, 1000, 100, 10, 1 nM) of the tested compounds were measured, and the IC50 value was calculated according to the inhibition rate fitting curve.

[2] = biological target: MNK2 (Homo sapiens, UniProt Q9HBH9); assay: MNK2 kinase inhibition assay (LANCE Ultra kinase activity assay, PerkinElmer); format: biochemical; conditions: 100 μM ATP; for IC50: five concentrations 10000-1 nM; for inhibition at 1 µM: inhibition rate at 1000 nM compound, 60 min, 25° C., read-out: Inhibitory activity(1 μM) MNK2
MNK2, sequence (Q9HBH9 whole entry): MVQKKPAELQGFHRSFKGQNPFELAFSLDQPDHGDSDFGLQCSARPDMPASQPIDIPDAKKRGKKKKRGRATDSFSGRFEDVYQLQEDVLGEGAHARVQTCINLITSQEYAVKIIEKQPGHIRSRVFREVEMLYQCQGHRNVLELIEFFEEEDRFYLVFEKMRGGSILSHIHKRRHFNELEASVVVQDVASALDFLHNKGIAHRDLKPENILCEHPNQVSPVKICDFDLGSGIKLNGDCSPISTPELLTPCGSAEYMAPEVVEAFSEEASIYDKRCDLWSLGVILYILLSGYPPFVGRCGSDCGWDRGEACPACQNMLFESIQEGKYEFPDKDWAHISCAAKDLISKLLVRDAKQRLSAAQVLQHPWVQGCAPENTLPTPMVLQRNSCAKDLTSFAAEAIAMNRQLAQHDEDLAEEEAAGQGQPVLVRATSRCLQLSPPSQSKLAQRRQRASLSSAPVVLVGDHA
Protocol: as §1, §2

MNK1, sequence (Q9BUB5 whole entry): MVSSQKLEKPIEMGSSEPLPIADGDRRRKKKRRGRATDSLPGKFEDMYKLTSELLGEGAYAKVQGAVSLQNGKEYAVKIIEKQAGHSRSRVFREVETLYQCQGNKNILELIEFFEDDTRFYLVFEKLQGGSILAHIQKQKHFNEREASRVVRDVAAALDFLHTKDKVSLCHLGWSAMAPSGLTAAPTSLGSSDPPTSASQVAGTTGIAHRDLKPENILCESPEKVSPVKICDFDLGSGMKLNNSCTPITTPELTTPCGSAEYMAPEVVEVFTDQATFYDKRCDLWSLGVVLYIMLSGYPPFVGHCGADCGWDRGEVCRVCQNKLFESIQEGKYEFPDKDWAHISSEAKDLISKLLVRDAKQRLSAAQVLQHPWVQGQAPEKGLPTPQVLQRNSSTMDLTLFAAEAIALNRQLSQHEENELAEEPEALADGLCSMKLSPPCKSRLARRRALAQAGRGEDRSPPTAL

IC50 [1] [nM]	inhibition at 1 µM [1] [%]	IC50 [2] [nM]	inhibition at 1 µM [2] [%]	Compound
< 50	> 75	< 50	> 75	N#Cc1ccc(-c2cnc3sc(-c4ccc(C(=O)NCCN5CCCC5)cc4)nn23)cc1 [Compound 38, 4-(5-(4-cyanophenyl)imidazo[2,1-b][1,3,4]thiadiazol-2-yl)-N-(2-(pyrrolidin-1-yl)ethyl)benzamide]
< 50	> 75	< 50	> 75	N#Cc1ccc(-c2cnc3sc(-c4ccc(C(=O)NCCCO)cc4)nn23)cc1 [Compound 39, 4-(5-(4-cyanophenyl)imidazo[2,1-b][1,3,4]thiadiazol-2-yl)-N-(3-hydroxypropyl)benzamide]
< 50	> 75	< 50	> 75	N#Cc1ccc(-c2cnc3sc(-c4ccc(C(=O)NCCO)cc4)nn23)cc1 [Compound 40, 4-(5-(4-cyanophenyl)imidazo[2,1-b][1,3,4]thiadiazol-2-yl)-N-(2-hydroxyethyl)benzamide]
< 50	> 75	< 50	> 75	CC1CCCCN1C(=O)c1ccc(-c2nn3c(-c4ccc(C#N)cc4)cnc3s2)cc1 (stereo not drawn) [Compound 41, 4-(2-(4-(2-methylpiperidine-1-carbonyl)phenyl)imidazo[2,1-b][1,3,4]thiadiazol-5-yl)benzonitrile]
< 50	> 75	< 50	> 75	N#Cc1ccc(-c2cnc3sc(-c4ccc(C(=O)NCCCCCO)cc4)nn23)cc1 [Compound 42, 4-(5-(4-cyanophenyl)imidazo[2,1-b][1,3,4]thiadiazol-2-yl)-N-(5-hydroxypentyl)benzamide]
	25 to 50		25 to 50	N#Cc1ccc(-c2csc3nc(-c4ccc(C(=O)N5CCOCC5)cc4)cn23)cc1 [Compound 43, 4-(6-(4-(morpholine-4-carbonyl)phenyl)imidazo[2,1-b]thiazol-3-yl)benzonitrile]
	25 to 50		25 to 50	O=C(c1ccc(-c2cn3c(-c4ccc(F)cc4)csc3n2)cc1)N1CCOCC1 [Compound 44, (4-(3-(4-fluorophenyl)imidazo[2,1-b]thiazol-6-yl)phenyl)(morpholino)methanone]
	25 to 50		25 to 50	COc1ccc(-c2csc3nc(-c4ccc(C(=O)N5CCOCC5)cc4)cn23)cc1 [Compound 45, (4-(3-(4-methoxyphenyl)imidazo[2,1-b]thiazol-6-yl)phenyl)(morpholino)methanone]
	25 to 50		25 to 50	O=C(c1ccc(-c2cn3c(-c4ccc(C(F)(F)F)cc4)csc3n2)cc1)N1CCOCC1 [Compound 46, morpholino(4-(3-(4-(trifluoromethyl)phenyl)imidazo[2,1-b]thiazol-6-yl)phenyl)methanone]
	25 to 50		25 to 50	O=C(c1ccc(-c2cn3c(-c4ccc(Cl)cc4)csc3n2)cc1)N1CCOCC1 [Compound 47, (4-(3-(4-chlorophenyl)imidazo[2,1-b]thiazol-6-yl)phenyl)(morpholino)methanone]
	25 to 50		25 to 50	CN1CCN(C(=O)c2ccc(-c3cn4c(-c5ccc(C#N)cc5)csc4n3)cc2)CC1 [Compound 48, 4-(6-(4-(4-methylpiperazine-1-carbonyl)phenyl)imidazo[2,1-b]thiazol-3-yl)benzonitrile]
	25 to 50		25 to 50	CN1CCN(C(=O)c2ccc(-c3cn4c(-c5ccc(F)cc5)csc4n3)cc2)CC1 [Compound 49, (4-(3-(4-fluorophenyl)imidazo[2,1-b]thiazol-6-yl)phenyl)(4-methylpiperazin-1-yl)methanone]
	25 to 50		25 to 50	CN1CCN(C(=O)c2ccc(-c3cn4c(-c5ccc(C(F)(F)F)cc5)csc4n3)cc2)CC1 [Compound 50, (4-methylpiperazin-1-yl)(4-(3-(4-(trifluoromethyl)phenyl)imidazo[2,1-b]thiazol-6-yl)phenyl)methanone]
